Our source for the Emax and EC50 values is patent publication US20260176320A1, “MODULATORS OF G-PROTEIN COUPLED RECEPTORS” (priority 2018, published 2026).

What is called Emax is the maximal effect, on the per cent scale that the assay sets.

Like-named read-outs stand apart in the source and are kept apart here. A value given as a limit tells only on which side of the number the result lay.

The target in assay [1] is GLP-1R (Homo sapiens, UniProt P43220). The assay can be described thus: HitHunter cAMP assay (GLP-1R). The assay is classed as cell-based. The settings on record: cAMP; for Emax: read-out: (Emax) GLP-1R. An outline of the steps:
(§1)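 Agonist stimulation lasts 30 min at room temperature on 10,000 cells per well, with phosphodiesterase blocked by 625 μM IBMX. Accumulated cAMP is quantified by competitive antibody luminescence after overnight development.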
In general terms: cAMP levels reflect the balance of adenylyl cyclase and phosphodiesterase activity.

Assay [2] addresses T1, GIP-R (Homo sapiens, UniProt P48546).
T1 sequence (P48546 22-466): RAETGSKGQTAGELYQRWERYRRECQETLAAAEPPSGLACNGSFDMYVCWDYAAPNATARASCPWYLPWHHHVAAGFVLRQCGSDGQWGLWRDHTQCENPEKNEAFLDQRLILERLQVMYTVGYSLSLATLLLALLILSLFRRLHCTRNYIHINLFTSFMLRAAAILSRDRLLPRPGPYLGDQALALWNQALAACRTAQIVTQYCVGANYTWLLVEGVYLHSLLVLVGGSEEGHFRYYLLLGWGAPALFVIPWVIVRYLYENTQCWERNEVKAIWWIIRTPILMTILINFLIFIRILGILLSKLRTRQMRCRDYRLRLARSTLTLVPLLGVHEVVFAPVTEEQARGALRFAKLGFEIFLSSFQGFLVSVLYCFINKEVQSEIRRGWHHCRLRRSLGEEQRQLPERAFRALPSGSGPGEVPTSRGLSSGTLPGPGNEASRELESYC
In words: HitHunter cAMP assay (GIP-R). The settings on record: cAMP; for Emax: read-out: (Emax) GIP-R. The assay is classed as cell-based. An outline of the steps:
as §1

The mark [3] stands for this setting: Table 3, read-out: EC50 GLP-1R/nM.
[4] abbreviates: Table 3A, read-out: EC50 GLP-1R/nM.
Setting [5] is: Table 3, read-out: EC50 GIP-R/nM.
Setting [6] is: Table 3A, read-out: EC50 GIP-R/nM.

Chain of GLP-1R (P43220 24-463): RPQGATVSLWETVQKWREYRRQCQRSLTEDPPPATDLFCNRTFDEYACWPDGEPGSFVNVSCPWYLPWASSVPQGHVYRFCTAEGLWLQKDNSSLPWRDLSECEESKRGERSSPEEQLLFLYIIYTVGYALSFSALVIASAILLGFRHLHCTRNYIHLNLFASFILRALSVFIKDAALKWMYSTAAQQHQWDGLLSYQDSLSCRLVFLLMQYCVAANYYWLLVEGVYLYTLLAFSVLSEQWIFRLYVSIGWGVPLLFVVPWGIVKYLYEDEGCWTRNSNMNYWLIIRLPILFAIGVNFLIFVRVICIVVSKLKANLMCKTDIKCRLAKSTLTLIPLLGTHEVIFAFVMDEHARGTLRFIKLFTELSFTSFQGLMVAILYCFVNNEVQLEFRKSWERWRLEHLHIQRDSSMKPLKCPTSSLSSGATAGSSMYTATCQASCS

With `CCCCCCCCCCCCCCCC(=O)N[C@@H](CCC(=O)NCCCC[C@H](NC(=O)[C@H](CO)NC(=O)[C@@H]1CCCN1C(=O)[C@@H]1CCCN1C(=O)[C@@H]1CCCN1C(=O)[C@H](C)NC(=O)CNC(=O)[C@H](CO)NC(=O)[C@H](CO)NC(=O)[C@@H]1CCCN1C(=O)CNC(=O)CNC(=O)[C@H](C)NC(=O)[C@H](CC(C)C)NC(=O)[C@H](CC(C)C)NC(=O)[C@H](Cc1c[nH]c2ccccc12)NC(=O)[C@H](CC(N)=O)NC(=O)[C@@H](NC(=O)[C@H](Cc1ccccc1)NC(=O)[C@H](CCC(=O)O)NC(=O)C(C)(C)NC(=O)[C@H](C)NC(=O)[C@H](C)NC(=O)[C@H](CCC(N)=O)NC(=O)[C@H](CCCCN)NC(=O)[C@H](CC(=O)O)NC(=O)[C@H](CC(C)C)NC(=O)[C@H](Cc1ccc(O)cc1)NC(=O)[C@@H](NC(=O)[C@H](CO)NC(=O)[C@H](Cc1ccc(O)cc1)NC(=O)[C@H](CC(=O)O)NC(=O)[C@H](CO)NC(=O)[C@@H](NC(=O)[C@H](Cc1ccccc1)NC(=O)[C@@H](NC(=O)CNC(=O)[C@H](CCC(=O)O)NC(=O)CSCC(=O)NCCN1C(=O)CC[C@H]1C)[C@@H](C)O)[C@@H](C)O)[C@@H](C)CC)C(C)C)C(N)=O)C(=O)O` (single isomer, unassigned) [Compound 74], the Emax turned out to be 92% in assay [1] (Table 3), 92% in assay [1] (Table 3A), 47% in assay [2] (Table 3) and 47% in assay [2] (Table 3A).
As to `CCCCCCCCCCCCCCCC(=O)N[C@@H](CCC(=O)NCCCC[C@H](NC(=O)[C@H](CO)NC(=O)[C@@H]1CCCN1C(=O)[C@@H]1CCCN1C(=O)[C@@H]1CCCN1C(=O)[C@H](C)NC(=O)CNC(=O)[C@H](CO)NC(=O)[C@H](CO)NC(=O)[C@@H]1CCCN1C(=O)CNC(=O)CNC(=O)[C@H](C)NC(=O)[C@H](CC(C)C)NC(=O)[C@H](CC(C)C)NC(=O)[C@H](Cc1c[nH]c2ccccc12)NC(=O)[C@H](CC(N)=O)NC(=O)[C@@H](NC(=O)[C@H](Cc1ccccc1)NC(=O)[C@H](CCC(=O)O)NC(=O)C(C)(C)NC(=O)[C@H](C)NC(=O)[C@H](C)NC(=O)[C@H](CCC(N)=O)NC(=O)[C@H](CCCCN)NC(=O)[C@H](CC(=O)O)NC(=O)[C@H](CC(C)C)NC(=O)[C@H](Cc1ccc(O)cc1)NC(=O)[C@@H](NC(=O)[C@H](CO)NC(=O)[C@H](Cc1ccc(O)cc1)NC(=O)[C@H](CC(=O)O)NC(=O)[C@H](CO)NC(=O)[C@@H](NC(=O)[C@H](Cc1ccccc1)NC(=O)[C@@H](NC(=O)CNC(=O)[C@H](CCC(=O)O)NC(=O)CSCC(=O)NCCN1C(=O)CC[C@@H]1C)[C@@H](C)O)[C@@H](C)O)[C@@H](C)CC)C(C)C)C(N)=O)C(=O)O` (single isomer, unassigned) [Compound 75], the Emax in assay [1] (Table 3) came out at 99%; in assay [1] (Table 3A), 99%; in assay [2] (Table 3), 39%; in assay [2] (Table 3A), 39%.
Regarding `CCCCCCCCCCCCCCCC(=O)N[C@@H](CCC(=O)NCCCC[C@H](NC(=O)[C@H](CO)NC(=O)[C@@H]1CCCN1C(=O)[C@@H]1CCCN1C(=O)[C@@H]1CCCN1C(=O)[C@H](C)NC(=O)CNC(=O)[C@H](CO)NC(=O)[C@H](CO)NC(=O)[C@@H]1CCCN1C(=O)CNC(=O)CNC(=O)[C@H](C)NC(=O)[C@H](CC(C)C)NC(=O)[C@H](CC(C)C)NC(=O)[C@H](Cc1c[nH]c2ccccc12)NC(=O)[C@H](CC(N)=O)NC(=O)[C@@H](NC(=O)[C@H](Cc1ccccc1)NC(=O)[C@H](CCC(=O)O)NC(=O)C(C)(C)NC(=O)[C@H](C)NC(=O)[C@H](C)NC(=O)[C@H](CCC(N)=O)NC(=O)[C@H](CCCCN)NC(=O)[C@H](CC(=O)O)NC(=O)[C@H](CC(C)C)NC(=O)[C@H](Cc1ccc(O)cc1)NC(=O)[C@@H](NC(=O)[C@H](CO)NC(=O)[C@H](Cc1ccc(O)cc1)NC(=O)[C@H](CC(=O)O)NC(=O)[C@H](CO)NC(=O)[C@@H](NC(=O)[C@H](Cc1ccccc1)NC(=O)[C@@H](NC(=O)CNC(=O)[C@H](CCC(=O)O)NC(=O)CSCC(=O)NCCN1C[C@@H](O)CC1=O)[C@@H](C)O)[C@@H](C)O)[C@@H](C)CC)C(C)C)C(N)=O)C(=O)O` [Compound 45], the Emax in assay [1] (Table 3) stood at 100%; in assay [1] (Table 3A), 100%; in assay [2] (Table 3), 42%; in assay [2] (Table 3A), 42%. Also, the EC50 in assay [1] (setting [3]) lay within 0.1 to 1 nM; in assay [1] (setting [4]), 0.1 to 1 nM; in assay [2] (setting [5]), 1 to 10 nM; in assay [2] (setting [6]), 1 to 10 nM.
Take `CCCCCCCCCCCCCCCC(=O)N[C@@H](CCC(=O)NCCCC[C@H](NC(=O)[C@H](CO)NC(=O)[C@@H]1CCCN1C(=O)[C@@H]1CCCN1C(=O)[C@@H]1CCCN1C(=O)[C@H](C)NC(=O)CNC(=O)[C@H](CO)NC(=O)[C@H](CO)NC(=O)[C@@H]1CCCN1C(=O)CNC(=O)CNC(=O)[C@H](C)NC(=O)[C@H](CC(C)C)NC(=O)[C@H](CC(C)C)NC(=O)[C@H](Cc1c[nH]c2ccccc12)NC(=O)[C@H](CC(N)=O)NC(=O)[C@@H](NC(=O)[C@H](Cc1ccccc1)NC(=O)[C@H](CCC(=O)O)NC(=O)C(C)(C)NC(=O)[C@H](C)NC(=O)[C@H](C)NC(=O)[C@H](CCC(N)=O)NC(=O)[C@H](CCCCN)NC(=O)[C@H](CC(=O)O)NC(=O)[C@H](CC(C)C)NC(=O)[C@H](Cc1ccc(O)cc1)NC(=O)[C@@H](NC(=O)[C@H](CO)NC(=O)[C@H](Cc1ccc(O)cc1)NC(=O)[C@H](CC(=O)O)NC(=O)[C@H](CO)NC(=O)[C@@H](NC(=O)[C@H](Cc1ccccc1)NC(=O)[C@@H](NC(=O)CNC(=O)[C@H](CCC(=O)O)NC(=O)CSCC(=O)NCCN1CC(=O)N(C)C1=O)[C@@H](C)O)[C@@H](C)O)[C@@H](C)CC)C(C)C)C(N)=O)C(=O)O` [Compound 46]: the Emax is 100% in assay [1] (Table 3), 100% in assay [1] (Table 3A), 46% in assay [2] (Table 3) and 46% in assay [2] (Table 3A). The EC50 in assay [1] (setting [3]), in assay [1] (setting [4]), in assay [2] (setting [5]) and in assay [2] (setting [6]) was 1 to 10 nM throughout.
`CCCCCCCCCCCCCCCC(=O)N[C@@H](CCC(=O)NCCCC[C@H](NC(=O)[C@H](CO)NC(=O)[C@@H]1CCCN1C(=O)[C@@H]1CCCN1C(=O)[C@@H]1CCCN1C(=O)[C@H](C)NC(=O)CNC(=O)[C@H](CO)NC(=O)[C@H](CO)NC(=O)[C@@H]1CCCN1C(=O)CNC(=O)CNC(=O)[C@H](C)NC(=O)[C@H](CC(C)C)NC(=O)[C@H](CC(C)C)NC(=O)[C@H](Cc1c[nH]c2ccccc12)NC(=O)[C@H](CC(N)=O)NC(=O)[C@@H](NC(=O)[C@H](Cc1ccccc1)NC(=O)[C@H](CCC(=O)O)NC(=O)C(C)(C)NC(=O)[C@H](C)NC(=O)[C@H](C)NC(=O)[C@H](CCC(N)=O)NC(=O)[C@H](CCCCN)NC(=O)[C@H](CC(=O)O)NC(=O)[C@H](CC(C)C)NC(=O)[C@H](Cc1ccc(O)cc1)NC(=O)[C@@H](NC(=O)[C@H](CO)NC(=O)[C@H](Cc1ccc(O)cc1)NC(=O)[C@H](CC(=O)O)NC(=O)[C@H](CO)NC(=O)[C@@H](NC(=O)[C@H](Cc1ccccc1)NC(=O)[C@@H](NC(=O)CNC(=O)[C@H](CCC(=O)O)NC(=O)CSCC(=O)NCCN1CC[C@@H](O)C1=O)[C@@H](C)O)[C@@H](C)O)[C@@H](C)CC)C(C)C)C(N)=O)C(=O)O` [Compound 47]: the Emax was determined as 100% in assay [1] (Table 3), 100% in assay [1] (Table 3A), 24% in assay [2] (Table 3) and 24% in assay [2] (Table 3A). Moreover, the EC50 in assay [1] (setting [3]) was under 0.1 nM; in assay [1] (setting [4]), under 0.1 nM; in assay [2] (setting [5]), 1 to 10 nM; in assay [2] (setting [6]), 10 to 100 nM.
Regarding `CCCCCCCCCCCCCCCC(=O)N[C@@H](CCC(=O)NCCCC[C@H](NC(=O)[C@H](CO)NC(=O)[C@@H]1CCCN1C(=O)[C@@H]1CCCN1C(=O)[C@@H]1CCCN1C(=O)[C@H](C)NC(=O)CNC(=O)[C@H](CO)NC(=O)[C@H](CO)NC(=O)[C@@H]1CCCN1C(=O)CNC(=O)CNC(=O)[C@H](C)NC(=O)[C@H](CC(C)C)NC(=O)[C@H](CC(C)C)NC(=O)[C@H](Cc1c[nH]c2ccccc12)NC(=O)[C@H](CC(N)=O)NC(=O)[C@@H](NC(=O)[C@H](Cc1ccccc1)NC(=O)[C@H](CCC(=O)O)NC(=O)C(C)(C)NC(=O)[C@H](C)NC(=O)[C@H](C)NC(=O)[C@H](CCC(N)=O)NC(=O)[C@H](CCCCN)NC(=O)[C@H](CC(=O)O)NC(=O)[C@H](CC(C)C)NC(=O)[C@H](Cc1ccc(O)cc1)NC(=O)[C@@H](NC(=O)[C@H](CO)NC(=O)[C@H](Cc1ccc(O)cc1)NC(=O)[C@H](CC(=O)O)NC(=O)[C@H](CO)NC(=O)[C@@H](NC(=O)[C@H](Cc1ccccc1)NC(=O)[C@@H](NC(=O)CNC(=O)[C@H](CCC(=O)O)NC(=O)CSCC(=O)NCCN1C(=O)C[C@@H](OC)C1=O)[C@@H](C)O)[C@@H](C)O)[C@@H](C)CC)C(C)C)C(N)=O)C(=O)O` [Compound 48], the EC50 was in the range of 0.1 to 1 nM in assay [1] (EC50 GLP-1R/nM, Table 3); 0.1 to 1 nM in assay [1] (EC50 GLP-1R/nM, Table 3A); 0.1 to 1 nM in assay [2] (EC50 GIP-R/nM, Table 3); 0.1 to 1 nM in assay [2] (EC50 GIP-R/nM, Table 3A). Also, the Emax in assay [1] (Table 3) amounted to 104%; in assay [1] (Table 3A), 104%; in assay [2] (Table 3) it was 65%; in assay [2] (Table 3A), 65%.
